Laboratory results as given in US20170196834A1, “PREPARATION AND APPLICATION OF FLAVONOL AS BRAIN-TARGETING SYNERGIST” (GUANGDONG PHARMACEUTICAL UNIVERSITY, priority 2014, published 2017).
Read-outs that look alike come from different tables or passages of the source.

What was measured:
[1] = Resveratrol in blood and brain tissues 0.5 h after intragastric administration, UPLC-MS (Example 4); assay type: in vivo; conditions: rat, oral, SD rats, 100 mg/kg resveratrol, 0.5 h after administration
Procedure: Treatment Group: LXN3 was made into suspension. 5 SD rats were administered the suspension at the dose of 100 mg/kg resveratrol and the volume of 20 ml/kg by intragastric administration;
Control group: Resveratrol was made into suspension. 5 SD rats were administered the suspension at the dose of 100 mg/kg resveratrol and the volume of 20 ml/kg by intragastric administration;
The rats were derw blood 0.5 h after administration and then sacrificed under anaesthesia. Brain tissues were taken to prepare brain homogenates. The content of resveratrol in the blood and brain tissues were detected by UPLC-MS.

MCAO forebrain ischemia = MCAO forebrain ischemia rats, improvement rate of cerebral infarction area (Example 4); assay type: in vivo; conditions: gavage, 7 days after administration
Procedure: In addition, 30 rats of MCAO forebrain ischemia were prepared, and they were administered solvent saline, 100 mg/kg LXN3, and resveratrol by gavage at 20 ml/kg, 10 rats per group; […]

SMILES: Oc1ccc(C=Cc2cc(O)cc(O)c2)cc1 [Resveratrol]
- concentration at 0.5 h ([1]; brain, read-out: Resveratrol content in brain tissues): 3.12 ± 1.29 ng/g
- concentration at 0.5 h ([1]; plasma, read-out: Plasma concentration of resveratrol): 5580 ± 1280 ng/mL
- Improvement rate of cerebral infarction area (MCAO forebrain ischemia): 20.1 ± 8.6%
